The values below come from paper PMC4452589, “An evaluation of the brain distribution of [^11C]GSK1034702, a muscarinic-1 (M1) positive allosteric modulator in the living human brain using positron emission tomography” (EJNMMI Research, 2014).

Molecules are shown by their SMILES. Where two headings read alike, the source gives them in different places.

Series [1] is described as follows: [11C]GSK1034702 PET brain distribution and kinetics in anaesthetised baboons. Type of series: in vivo, Papio anubis. Conditions: for Kp: baboon (Papio anubis), intravenous. The protocol: The brain distribution of carbon-11-labelled GSK1034702 ([^11C]GSK1034702) was conducted in two anaesthetised baboons (P. anubis), to assess its transport across the BBB. These studies were conducted at Columbia University Medical Center, New York. The study was approved by the Columbia University Institutional Animal Care and Use Committee (IACUC).
Two adult baboons were studied over a 6-week period. Subject A (an ovariectomised female) received two injections of [^11C]GSK1034702 22 days apart, while subject B (male) received a single injection of [^11C]GSK1034702. Each experimental session included a single dynamic PET scan.
Fasted animals were immobilised with intramuscular ketamine injection (10 mg/kg), and anesthetised with 1.8% isoflurane via an endotracheal tube. Vital signs were monitored every 10 min and the temperature was kept constant at 37°C with heated water blankets. An intravenous (IV) perfusion line was used for hydration and injection of the radiotracer. A catheter was inserted in a femoral artery for arterial blood sampling. The head was positioned at the centre of the field of view. PET imaging was performed with the ECAT EXACT HR + PET scanner (Siemens/CTI, Knoxville, TN) operating in 3D mode (in-plane resolution of 4.3, 4.5, 5.4 and 8.0 mm, full width at half maximum (FWHM) at a distance of 0, 1, 10 and 20 cm from the centre of the field of view). A 15-min transmission scan was obtained prior to radiotracer injection for attenuation correction. […] Following IV administration (45-s bolus) of a single dose of [^11C]GSK1034702 dynamic PET, arterial blood and metabolite data were acquired for 120 min (subject A) for the first two scans and only 60 min for the third scan due to a technical issue (subject B).
Regions of interest (ROIs) were drawn on previously acquired T1-weighted anatomical magnetic resonance imaging (MRI) brain images for each animal. The following regions were defined: cerebellum, hippocampus, thalamus, striatum, frontal cortex and occipital cortex. Regions were drawn in the MEDx (Sensor Systems Inc., Sterling, VA, USA) software environment. PET emission data were attenuation-corrected using the transmission scan, and frames were reconstructed using a Shepp filter (cutoff 0.5 cycles/projection rays). Decay-corrected PET images were registered to the MRI images by maximisation of mutual information using SPM2 and Matlab software. Regional boundaries were transferred from the MRI to the individual registered PET frames, and time-activity curves were measured in the MEDx environment. Right and left regions were averaged. For a given animal, the same regions were used for all scans.
Brain time activity curves (TACs) were corrected for the contribution of blood activity assuming a 5% blood volume. A metabolite-corrected arterial input function and regional TACs were fitted to a compartmental model to derive regional VT estimates as well as a whole brain VT.

Series [2] in a line: plasma free fraction by ultrafiltration, baboon arterial plasma. It is filed as in vitro ADME. Conditions: baboon (Papio anubis), mean ± SD, read-out: free fraction in plasma (fP). The protocol:
For all non-human primate studies, the non-protein-bound fraction of [^11C]GSK1034702 in arterial plasma (fP) was quantified using the following methodology: triplicate 200 μL aliquots of plasma collected before injection were mixed with [^11C]GSK1034702, pipetted into ultrafiltration units (Centrifree; Amicon, Danvers, MA, USA) and centrifuged at room temperature (20 min at 4,000 rpm). At the end of centrifugation, plasma and ultrafiltrate activities were counted and fP was calculated as the ratio of ultrafiltrate to total activity concentrations.

[3] abbreviates: both sexes, whole brain, Papio anubis, mean ± SD of three scans, two-tissue compartmental model, read-out: whole brain VT.

As for `Cc1cc(F)c2[nH]c(=O)n(C3CCN(C4CCOCC4)CC3)c2c1` [GSK1034702], the Kp in series [1] (both sexes, cortex, primate, as worded, read-out: VT measured in the primate cortex) was 4; in series [1] (setting [3]), 3.97. The fraction unbound at 20 min in series [2] stood at 0.54.
For the compound `[11CH3]c1cc(F)c2[nH]c(=O)n(C3CCN(C4CCOCC4)CC3)c2c1` [[^11C]GSK1034702], the “Regional K1” value in series [1] (Cerebellum, Subject A Exam 1, baboon) is listed as 0.46 mL.cm^-3.min^-1; in series [1] (Cerebellum, Subject A Exam 2, baboon), 0.57 mL.cm^-3.min^-1; in series [1] (Cerebellum, Subject B Exam 1, baboon) it was 0.35 mL.cm^-3.min^-1; in series [1] (Frontal Ctx, Subject A Exam 1, baboon), 0.39 mL.cm^-3.min^-1; in series [1] (Frontal Ctx, Subject A Exam 2, baboon), 0.53 mL.cm^-3.min^-1; in series [1] (Frontal Ctx, Subject B Exam 1, baboon), 0.32 mL.cm^-3.min^-1. The “Regional K1” value in series [1] (Hippocampus, Subject A Exam 1, baboon) came out at 0.39 mL.cm^-3.min^-1; in series [1] (Hippocampus, Subject A Exam 2, baboon), 0.60 mL.cm^-3.min^-1; in series [1] (Hippocampus, Subject B Exam 1, baboon), 0.32 mL.cm^-3.min^-1; in series [1] (Occipital Ctx, Subject A Exam 1, baboon), 0.67 mL.cm^-3.min^-1; in series [1] (Occipital Ctx, Subject A Exam 2, baboon), 0.53 mL.cm^-3.min^-1; in series [1] (Occipital Ctx, Subject B Exam 1, baboon), 0.37 mL.cm^-3.min^-1. Also, the “Regional K1” value in series [1] (Striatum, Subject A Exam 1, baboon) was determined as 0.39 mL.cm^-3.min^-1; in series [1] (Striatum, Subject A Exam 2, baboon) it was 0.51 mL.cm^-3.min^-1; in series [1] (Striatum, Subject B Exam 1, baboon), 0.39 mL.cm^-3.min^-1; in series [1] (Thalamus, Subject A Exam 1, baboon), 0.44 mL.cm^-3.min^-1; in series [1] (Thalamus, Subject A Exam 2, baboon), 0.52 mL.cm^-3.min^-1; in series [1] (Thalamus, Subject B Exam 1, baboon), 0.27 mL.cm^-3.min^-1. The “Regional K1” value in series [1] (Whole Brain, Subject A Exam 1, baboon) worked out at 0.45 mL.cm^-3.min^-1; in series [1] (Whole Brain, Subject A Exam 2, baboon) it was 0.50 mL.cm^-3.min^-1; in series [1] (Whole Brain, Subject B Exam 1, baboon), 0.35 mL.cm^-3.min^-1. Moreover, in series [1] (Papio anubis, mean ± SD of three scans, two-tissue compartmental model), the “whole brain VT” value came to 3.97 ± 0.38 mL.cm^−3. In addition, the Kp in series [1] (setting [3]) was 3.97; in series [1] (female, cerebellum, Cerebellum, Subject A Exam 1, baboon, read-out: Regional V T), 4.07; in series [1] (female, cerebellum, Cerebellum, Subject A Exam 2, baboon, read-out: Regional V T), 3.79; in series [1] (female, frontal cortex, Frontal Ctx, Subject A Exam 1, baboon, read-out: Regional V T) it was 3.92; in series [1] (female, frontal cortex, Frontal Ctx, Subject A Exam 2, baboon, read-out: Regional V T), 3.73; in series [1] (female, hippocampus, Hippocampus, Subject A Exam 1, baboon, read-out: Regional V T), 4.78. In addition, the Kp was 4.62 in series [1] (female, hippocampus, Hippocampus, Subject A Exam 2, baboon, read-out: Regional V T); 4.49 in series [1] (female, occipital cortex, Occipital Ctx, Subject A Exam 1, baboon, read-out: Regional V T); 4.64 in series [1] (female, occipital cortex, Occipital Ctx, Subject A Exam 2, baboon, read-out: Regional V T); 3.86 in series [1] (female, striatum, Striatum, Subject A Exam 1, baboon, read-out: Regional V T); 3.95 in series [1] (female, striatum, Striatum, Subject A Exam 2, baboon, read-out: Regional V T); 4.06 in series [1] (female, thalamus, Thalamus, Subject A Exam 1, baboon, read-out: Regional V T). Also, the Kp in series [1] (female, thalamus, Thalamus, Subject A Exam 2, baboon, read-out: Regional V T) amounted to 3.91; in series [1] (female, whole brain, Whole brain, Subject A Exam 1, baboon, read-out: Regional V T) it was 4.2; in series [1] (female, whole brain, Whole brain, Subject A Exam 2, baboon, read-out: Regional V T), 4.19; in series [1] (male, cerebellum, Cerebellum, Subject B Exam 1, baboon, read-out: Regional V T), 3.09; in series [1] (male, frontal cortex, Frontal Ctx, Subject B Exam 1, baboon, read-out: Regional V T), 3.52; in series [1] (male, hippocampus, Hippocampus, Subject B Exam 1, baboon, read-out: Regional V T) it was 3.52. Further, the Kp is 3.89 in series [1] (male, occipital cortex, Occipital Ctx, Subject B Exam 1, baboon, read-out: Regional V T); 3.21 in series [1] (male, striatum, Striatum, Subject B Exam 1, baboon, read-out: Regional V T); 2.75 in series [1] (male, thalamus, Thalamus, Subject B Exam 1, baboon, read-out: Regional V T); 3.52 in series [1] (male, whole brain, Whole brain, Subject B Exam 1, baboon, read-out: Regional V T). In addition, the fraction unbound at 20 min in series [2] was found to be 0.54 ± 0.21.
